Consider 4 compounds from US4859678A, “N-oxide ergolines as antihypertensive agents” (Farmitalia Carlo Erba, priority 1987, dated 1989).

For the assay, the system named is mean blood pressure. In words: Antihypertensive activity: intra-arterial mean blood pressure after single oral dose in rats. Format: in vivo. The conditions noted are these: rat, p.o.; for ED25 (dose lowering mean blood pressure of 25 mmHg) / ED (25 mmHg): single dose, calculated from dose-response regression line; for Decrease in mean blood pressure at 15' / Decrease in mean blood pressure at 30' / Decrease in mean blood pressure at 1 h / Decrease in mean blood pressure at 2 h / Decrease in mean blood pressure at 3 h / Decrease in mean blood pressure at 4 h / Decrease in mean blood pressure at 5 h / Decrease in mean blood pressure at 6 h / Decrease in mean blood pressure at 8 h / Decrease in mean blood pressure at 10 h / Decrease in mean blood pressure at 12 h: ex 40 0.125, Example 1 0.5, ex 41 0.25, Example 2 1 mg/kg; for Decrease in mean blood pressure at 15': 15 min, not significant (**): Example 1; for Decrease in mean blood pressure at 30': 30 min; for Decrease in mean blood pressure at 6 h: not significant (**): ex 41; for Decrease in mean blood pressure at 8 h / Decrease in mean blood pressure at 10 h / Decrease in mean blood pressure at 12 h: not significant (**): ex 40, ex 41; for ED (25 mmHg): po, read-out: ED25 (dose lowering mean blood pressure of 25 mmHg). How it is done:
Intrarterial measurements of mean blood pressure (MBP) were performed through catheters (PE 50, Clay Adams) implanted in the rat right carotid artery under halothane anesthesia. Twenty four hours after surgery, the animals were placed in Ballman cages and the arterial cannula was connected via a pressure transducer to a Beckman blood pressure recorder for continuous monitoring of mean blood pressure. MBP was recorded before the oral administration (basal values) and at 15-30-60-120-240 minutes until 12 hours after treatment. Groups of 7 to 8 rats were orally treated with a single dose of the test compound of vehicle, methocel 0.5% w/v (0.2 ml/100 g b.w.). The ED25 was calculated for each compound from the dose-response regression line.
As reference standard drugs, two prior art ergoline derivatives described by EP 0126968 were also tested.
In fact, the mean blood pressure decrease induced by the two derivatives of the present invention was still significant 10 to 12 hours after dosing, whereas with the prior art compounds the hypotensive effect lasted only 5 to 6 hours. The oral orientative acute toxicity (LD50) in mice (evaluated in the Irwin test) of the compounds of the formula I was higher than 800 mg/kg.

Turning to “1-[6-methyl -Δ- 9,10-ergolen -8β- yl)methyl]-2,4-(1H,3H)dihydro-pyrimidinedione-N6-oxide [Example 1]”, the “ED25 (dose lowering mean blood pressure of 25 mmHg)” value is reported as 0.050 mg/Kg^-1, the “Decrease in mean blood pressure at 15'” value is on record as -12.2 ΔmmHg, the “Decrease in mean blood pressure at 30'” value is -21.0 ΔmmHg and the “Decrease in mean blood pressure at 1 h” value was -32.2 ΔmmHg. In addition, the “Decrease in mean blood pressure at 2 h” value was -35.5 ΔmmHg, the “Decrease in mean blood pressure at 3 h” value is on record as -45.1 ΔmmHg, the “Decrease in mean blood pressure at 4 h” value is recorded as -55.1 ΔmmHg and the “Decrease in mean blood pressure at 5 h” value was -58.5 ΔmmHg. Also, the “Decrease in mean blood pressure at 6 h” value was -54.3 ΔmmHg, the “Decrease in mean blood pressure at 8 h” value was -44.3 ΔmmHg, the “Decrease in mean blood pressure at 10 h” value is recorded as -35.5 ΔmmHg and the “Decrease in mean blood pressure at 12 h” value was -27.2 ΔmmHg.

`C[N+]1([O-])C[C@H](CN2CC(=O)NC2=O)C=C2c3cccc4[nH]cc(c34)C[C@H]21` (stereo partly drawn) [Example 2, 1-[(6-methyl -Δ-9,10-ergolen-8β-yl)methyl]-2,4-imidazolidinedione-N6-oxide]: the ED (25 mmHg) is 0.198 mg/kg, the “Decrease in mean blood pressure at 15'” value was -23.1 ΔmmHg, the “Decrease in mean blood pressure at 30'” value is listed as -27.5 ΔmmHg and the “Decrease in mean blood pressure at 1 h” value is given as -35.9 ΔmmHg. For the same compound, the “Decrease in mean blood pressure at 2 h” value is -34.1 ΔmmHg, the “Decrease in mean blood pressure at 3 h” value is recorded as -35.0 ΔmmHg, the “Decrease in mean blood pressure at 4 h” value was -38.4 ΔmmHg and the “Decrease in mean blood pressure at 5 h” value is on record as -36.5 ΔmmHg. Also, the “Decrease in mean blood pressure at 6 h” value is recorded as -34.1 ΔmmHg, the “Decrease in mean blood pressure at 8 h” value is listed as -27.8 ΔmmHg, the “Decrease in mean blood pressure at 10 h” value was -22.5 ΔmmHg and the “Decrease in mean blood pressure at 12 h” value is given as -16.2 ΔmmHg.

As for `CN1C[C@H](Cn2ccc(=O)[nH]c2=O)C=C2c3cccc4[nH]cc(c34)C[C@H]21` [Standard, ex 40 of EP 0126968, 1-[(6-methy -Δ-9,10-ergolen-8β-yl)methyl]-2,4-(1H,3H)dihydro-pyrimidine diole], the “ED25 (dose lowering mean blood pressure of 25 mmHg)” value is on record as 0.046 mg/Kg^-1, the “Decrease in mean blood pressure at 15'” value was -22.9 ΔmmHg, the “Decrease in mean blood pressure at 30'” value is given as -34.5 ΔmmHg and the “Decrease in mean blood pressure at 1 h” value is recorded as -33.9 ΔmmHg. Moreover, the “Decrease in mean blood pressure at 2 h” value was -37.3 ΔmmHg, the “Decrease in mean blood pressure at 3 h” value is -34.5 ΔmmHg, the “Decrease in mean blood pressure at 4 h” value is reported as -42.7 ΔmmHg and the “Decrease in mean blood pressure at 5 h” value is recorded as -28.9 ΔmmHg. Also, the “Decrease in mean blood pressure at 6 h” value is given as -25.5 ΔmmHg, the “Decrease in mean blood pressure at 8 h” value was -10.5 ΔmmHg, the “Decrease in mean blood pressure at 10 h” value is -7.3 ΔmmHg and the “Decrease in mean blood pressure at 12 h” value is -6.7 ΔmmHg.

With `CN1C[C@H](CN2CC(=O)NC2=O)C=C2c3cccc4[nH]cc(c34)C[C@H]21` [Standard, ex 41 of EP 0126968, 1-[(6-methyl-Δ-9,10-ergolen-8β-yl)methyl]-2,4-imidazolidinedione], the ED (25 mmHg) was 0.19 mg/kg, the “Decrease in mean blood pressure at 15'” value is -26.8 ΔmmHg, the “Decrease in mean blood pressure at 30'” value is given as -31.4 ΔmmHg and the “Decrease in mean blood pressure at 1 h” value is -29.6 ΔmmHg. Further, the “Decrease in mean blood pressure at 2 h” value is reported as -37.5 ΔmmHg, the “Decrease in mean blood pressure at 3 h” value was -35.7 ΔmmHg, the “Decrease in mean blood pressure at 4 h” value is listed as -31.4 ΔmmHg and the “Decrease in mean blood pressure at 5 h” value was -15.7 ΔmmHg. Moreover, the “Decrease in mean blood pressure at 6 h” value is recorded as -14.6 ΔmmHg, the “Decrease in mean blood pressure at 8 h” value is recorded as -2.5 ΔmmHg, the “Decrease in mean blood pressure at 10 h” value was -6.5 ΔmmHg and the “Decrease in mean blood pressure at 12 h” value is given as -9.4 ΔmmHg.
